Measurements as given in paper PMC4381587, “A novel PI3K inhibitor PIK-C98 displays potent preclinical activity against multiple myeloma” (Oncotarget, 2014).

Key:
[1] = tested on: AKT phosphorylation in LP1 and JJN3 cells; test: Immunoblotting of AKT phosphorylation in starved, IGF-1-stimulated LP1 and JJN3 cells; assay type: cell-based; details: 2 hr, then IGF-1 100 ng/mL 15 min
Description: (B) LP1 and JJN3 cells were starved overnight, then treated with C98 or S14161 for 2 hr, followed by IGF-1 (100 ng/mL) for 15 min. Cells were then prepared for the analysis of the expression of p-AKT, t-AKT, p-IGF-1R, and IGF-1R by immunoblotting. (C) OPM2 and JJN3 cells were treated with increasing concentrations of C98 for 24 hr before being applied to immunoblotting against p-ERK, t-ERK, p-P38, t-P38, p-Src, t-Src, p-STAT3, or t-STAT3. GAPDH and β-actin were used as loading controls.
To find out whether C98 also interfered with other signaling pathways, we first checked the receptor tyrosine kinase IGF-1R, which mediates PI3K activation in MM cells in the presence of IGF-1. Starved MM cells LP1 and JJN3 were incubated with C98 followed by IGF-1 stimulation. […] Moreover, we also measured the expression of PTEN, a negative regulator of PI3K signaling, in MM cells after C98 treatment.
The immunoblotting assays were performed as described previously. IRDye 680 goat anti-mouse and IRDye 800CW goat anti-rabbit antibodies were from Odyssey (San Ramon, CA, USA).

OPM2 xenograft = test: OPM2 myeloma xenograft in nude mice; assay type: in vivo; details: 80 mg/kg oral daily
[2] = Pharmacokinetic study in nude mice, oral; assay type: in vivo; details: mouse, one oral bolus 40 mg/kg, plasma
Description: To further characterize C98 in the treatment of MM, we determined its pharmacokinetic parameters. One bolus of 40 mg/kg of C98 was orally administrated, blood samples were then collected at the time points of 0.167, 0.5, 1, 2, 4, 6, 8, and 24 hr.
Prior to dose administration, nude mice (Shanghai Slac Laboratory Animal Co. Ltd., Shanghai, China) were fasted overnight with free access to water in the regular light-dark cycle. A group of 9 mice received an oral dose of C98 at 40 mg/kg. Blood samples were collected from three mice (n = 3) at each time points as follows: 0.167, 0.5, 1, 2, 4, 6, 8, and 24 hr. Blood samples (100 μL) were immediately mixed with 10 μL of EDTA and plasma was obtained by centrifugation at 1.3 × 10^4 rpm for 10 min. Samples were stored at –80°C for LC-MS/MS analysis. Plasma concentration versus time was analyzed using WinNolin software (version 6.2.1, Pharsight, USA) and the pharmacokinetic parameters maximum drug concentration (Cmax), time to reach maximum drug concentration (Tmax), half life (t1/2), area under the plasma level-time curve (AUC) were calculated.
Concentrations of C98 in plasma and in tumor tissues were analyzed by a LC-MS/MS method as described previously. Chromatographic separation was achieved using an Agela Venusil XBP C18 column (50 × 2.1 mm; […] particle size, Bonna-Agela Technologies, Tianjin, China). The column temperature was maintained at 40°C. Gradient elution at a flow rate of 0.3 mL/min was performed using the mobile phases: A, acetonitrile: water: formic acid (5: 95: 0.1, v: v: v) and B, acetonitrile: water: formic acid (95: 5: 0.1, v: v: v).
The mass spectrometer was operated in the negative ionization mode. The ion transitions for the multiple reaction monitored were: C98, 346.6 (M-H)→312.7; betamethasone (internal standard, IS), 391.1 (M-H)→ 361.4, with a dwell time of 100 ms per transition. After setting the collision energy and mass transition for C98 and the Internal standard, all other parameters were optimized for the best sensitivity. Data was processed by the Analyst 1.5.2 data collection and integration software (AB Sciex, Framingham, MA).
Supplementary Figure S5: The time-concentration profiles of C98 in plasma after oral administration. Nude mice were orally administrated C98 at a dose of 40 mg/kg. Blood species were then collected at a serial of time points (0, 0.167, 0.5, 1, 1.5, 2, 4, 6, 8, 24 hr) and subject to LC-MS/MS analysis after treatment as described in the Methods section. Resultant plasma concentration versus time data was analyzed using WinNolin software.
(also on this page, place not known: www.impactjournals.com/oncotarget/ Oncotarget, Materials 2014 Supplementary) […]

[3] = Body weight and hematology analysis in xenograft mice; assay type: in vivo
Description: Totally 50 female […] mice from Shanghai Slac Laboratory Animal Co. Ltd were used for the xenograft models with human MM cell lines OPM2 and JJN3, respectively. When tumors were palpable, the OPM2-xenograft mice were randomly divided into two groups. One group as a control was received the vehicle, and another group was orally administrated C98 (80 mg/kg) once a day for continuous 16 days. The JJN3 xenografted mice were randomly divided into three groups which were orally administrated vehicle or C98 (40 or 80 mg/kg), respectively. Body weight and tumor volumes were measured every other day as described previously. At the end of this experiment, tumors were collected for further studies. The concentrations of C98 in tumor tissues were also determined by LC-MS/MS as described above. All experiments involved in mice were reviewed and approved by the Review Board of Animal Care and Use of Soochow University.
At the end of the experiment of the in vivo studies, whole blood samples were collected from the eyes and were immediately subject to complete blood analysis as described previously. […]
www.impactjournals.com/oncotarget/ Oncotarget, Supplementary Materials 2014 […]
OPM2 (A) and JJN3 (B) were injected (s.c.) […]
into nude mice. When tumors were palpable, mice were orally administrated C98 at dosage as indicated for continued 16 days. Mice bodyweight was monitored every other day. […]

## N#C/C(=C\C=C\c1ccc(-c2cc(Cl)ccc2Cl)o1)C(N)=S [C98]
[1]
  AKT phosphorylation: suppressed AKT phosphorylation
OPM2 xenograft; 16-day treatment
  tumors decreased to % of the vehicle control: 45%
OPM2 xenograft; 16 days
  tumor volume at the end of the experiment: 605.8 ± 115.7 mm^3
[2]; read-out: mean residence time (MRT)
  MRT: 4.48 h
[2]; read-out: median peak concentration (Cmax)
  Cmax: 367 ng/mL
[2]; read-out: time to maximal concentration (Tmax)
  Tmax: 0.5 h
[2]; nude, po, 40 mg/kg, read-out: half-life (t1/2) (converted)
  half-life: 2.03 h
[3]; OPM2 and JJN3 xenograft models, oral 40 or 80 mg/kg, 16 days
  body weight of mice: had no effects on body weight
[3]; mice treated with C98, end of the in vivo studies (data not shown)
  blood cell count, platelet count, hemoglobin measurement: no significant changes
